Assay results reported in article PMC8772704, “Quantification of Fosfomycin in Combination with Nine Antibiotics in Human Plasma and Cation-Adjusted Mueller-Hinton II Broth via LCMS” (Antibiotics, 2022).

Columns and labels:
[1] = Long-term storage stability of antibiotics in combination with fosfomycin spiked in plasma/CAMHB (−30 °C, −80 °C); type: physicochemical; conditions: for Mean accuracy (%), Table S15 / Mean accuracy (%), Table S17 / Mean accuracy (%), Table S16 / Mean accuracy (%), Table S18: CAMHB; for Mean accuracy (%), Table S15 / Mean accuracy (%), Table S17 / Mean accuracy (%), Table S16 / Mean accuracy (%), Table S18 / Mean accuracy (%), Table S11 / Mean accuracy (%), Table S13 / Mean accuracy (%), Table S12 / Mean accuracy (%), Table S14: combination with fosfomycin; for Mean accuracy (%), Table S15 / Mean accuracy (%), Table S11: 2 weeks at -30 °C; for Mean accuracy (%), Table S17 / Mean accuracy (%), Table S13: 2 weeks at -80 °C; for Mean accuracy (%), Table S16 / Mean accuracy (%), Table S12: 4 weeks at -30 °C; for Mean accuracy (%), Table S18 / Mean accuracy (%), Table S14: 4 weeks at -80 °C
Method: (§1) The stability of fosfomycin in combination with other antibiotics in plasma/CAMHB was evaluated under various operational conditions. Spiked plasma/CAMHB samples were evaluated at 7 h and 15 h in the autosampler at 4 °C. Long-term stability was evaluated up to 4 weeks of antibiotic-spiked plasma/CAMHB samples at LQC, MQC, and HQC concentrations stored at −30 °C and −80 °C.

[2] = 32-day stability of stock solutions stored at −80 °C; type: physicochemical; conditions: stock solution stored at -80 °C; peak area Day 32 vs Day 1
Method: Stability of stock solutions
All stock solutions of antibiotics and their corresponding stable-isotope variants were measured prior to cold storage at -80 °C and tested at 32 days later.
Stability was determined by comparing the peak area of each drug between its Day 1 and Day 32 measurement. Acceptable criteria for stability was met if the […]

[3] = Autosampler stability at 4 °C of extracted antibiotic-spiked plasma/CAMHB samples; conditions: for Mean accuracy (%), Table S8 / Mean accuracy (%), Table S10: CAMHB extracted samples; for Mean accuracy (%), Table S8 / Mean accuracy (%), Table S7: 7 h autosampler 4 °C; for Mean accuracy (%), Table S10 / Mean accuracy (%), Table S9: 15 h autosampler 4 °C; for Mean accuracy (%), Table S7 / Mean accuracy (%), Table S9: plasma extracted samples
Method: as §1

[4] = HQC: nominal mg/L CAZ 150, FEP 200, PIP 250, ATM 300, MEM 200, DOR 175, LVX 30, CEFT 250, TZB 87.5, TGC 20, AVI 30, FOF 1000
[5] = LQC: nominal 1 mg/L (levofloxacin, avibactam 0.5; fosfomycin 10)
[6] = MQC: nominal mg/L CAZ 75, FEP 100, PIP 150, ATM 150, MEM 100, DOR 87.5, LVX 15, CEFT 125, TZB 43.75, TGC 10, AVI 15, FOF 500

SMILES	Mean accuracy (%), Table S15 ([1]; HQC (nominal as E15)) [%]	Mean accuracy (%), Table S15 ([1]; LQC (nominal as E13)) [%]	Mean accuracy (%), Table S15 ([1]; MQC (nominal as E14)) [%]	Mean accuracy (%), Table S17 ([1]; HQC (nominal as E15)) [%]	Mean accuracy (%), Table S17 ([1]; LQC (nominal as E13)) [%]	Mean accuracy (%), Table S17 ([1]; MQC (nominal as E14)) [%]	Mean accuracy (%), Table S16 ([1]; HQC (nominal as E15)) [%]	Mean accuracy (%), Table S16 ([1]; LQC (nominal as E13)) [%]	Mean accuracy (%), Table S16 ([1]; MQC (nominal as E14)) [%]	Mean accuracy (%), Table S18 ([1]; HQC (nominal as E15)) [%]	Mean accuracy (%), Table S18 ([1]; LQC (nominal as E13)) [%]	Mean accuracy (%), Table S18 ([1]; MQC (nominal as E14)) [%]	Mean accuracy (%), Table S11 ([1]; plasma, HQC (nominal as E15)) [%]	Mean accuracy (%), Table S11 ([1]; plasma, LQC (nominal as E13)) [%]	Mean accuracy (%), Table S11 ([1]; plasma, MQC (nominal as E14)) [%]	Mean accuracy (%), Table S13 ([1]; plasma, HQC (nominal as E15)) [%]	Mean accuracy (%), Table S13 ([1]; plasma, LQC (nominal as E13)) [%]	Mean accuracy (%), Table S13 ([1]; plasma, MQC (nominal as E14)) [%]	Mean accuracy (%), Table S12 ([1]; plasma, LQC (nominal as E13)) [%]	Mean accuracy (%), Table S14 ([1]; plasma, LQC (nominal as E13)) [%]	other results
CN(C)c1cc(NC(=O)CNC(C)(C)C)c(O)c2c1C[C@H]1C[C@H]3[C@H](N(C)C)C(O)=C(C(N)=O)C(=O)[C@@]3(O)C(O)=C1C2=O [Tigecycline, tigecycline]	87.2	98.8	87.3	102.3	98.9	106.1	91.2	87.0	100.6	91.0	87.6	95.3	102.5	111.9	98.9	107.8	109.8	100.1	97.8	96.9	Mean accuracy (%), Table S12 ([1]; plasma, HQC (nominal as E15)): 110.7%; Mean accuracy (%), Table S12 ([1]; plasma, MQC (nominal as E14)): 102.8%; Mean accuracy (%), Table S14 ([1]; plasma, HQC (nominal as E15)): 112.3%; Mean accuracy (%), Table S14 ([1]; plasma, MQC (nominal as E14)): 105.0%; 32 Day Stability (%) [2]: 102.57%; Mean accuracy (%), Table S8 ([3]; HQC (nominal as E15)): 103.5%; Mean accuracy (%), Table S8 ([3]; LQC (nominal as E13)): 100.6%; Mean accuracy (%), Table S8 ([3]; MQC (nominal as E14)): 103.1%; Mean accuracy (%), Table S10 ([3]; HQC (nominal as E15)): 103.2%; Mean accuracy (%), Table S10 ([3]; LQC (nominal as E13)): 101.8%; Mean accuracy (%), Table S10 ([3]; MQC (nominal as E14)): 100.2%; Mean accuracy (%), Table S7 [3, 4]: 110.0%; Mean accuracy (%), Table S7 [3, 5]: 106.7%; Mean accuracy (%), Table S7 [3, 6]: 112.7%; Mean accuracy (%), Table S9 ([3]; HQC (nominal as E15)): 111.0%; Mean accuracy (%), Table S9 ([3]; LQC (nominal as E13)): 105.1%; Mean accuracy (%), Table S9 ([3]; MQC (nominal as E14)): 106.3%
CCN1CCN(C(=O)N[C@@H](C(=O)N[C@@H]2C(=O)N3[C@@H]2SC(C)(C)[C@@H]3C(=O)O)c2ccccc2)C(=O)C1=O [Piperacillin, piperacillin]	89.0	106.0	89.5	89.6	111.6	92.6	69.6	90.6	67.5	87.6	109.4	90.6	88.5	112.6	92.7	88.6	109.5	93.0	106.0	111.6	Stability verdict (within ±15% of nominal) ([1]; CAMHB samples stored at −30 °C, 4 weeks): instability; Stability data ([1]; plasma, 2-week and 4-week intervals): 86–88%; 32 Day Stability (%) [2]: 100.48%; Mean accuracy (%), Table S8 ([3]; HQC (nominal as E15)): 89.6%; Mean accuracy (%), Table S8 ([3]; LQC (nominal as E13)): 113.7%; Mean accuracy (%), Table S8 ([3]; MQC (nominal as E14)): 86.7%; Mean accuracy (%), Table S10 ([3]; HQC (nominal as E15)): 90.6%; Mean accuracy (%), Table S10 ([3]; LQC (nominal as E13)): 112.7%; Mean accuracy (%), Table S10 ([3]; MQC (nominal as E14)): 87.6%; Mean accuracy (%), Table S7 [3, 4]: 87.5%; Mean accuracy (%), Table S7 [3, 5]: 109.5%; Mean accuracy (%), Table S7 [3, 6]: 84.0%; Mean accuracy (%), Table S9 ([3]; HQC (nominal as E15)): 89.6%; Mean accuracy (%), Table S9 ([3]; LQC (nominal as E13)): 109.9%; Mean accuracy (%), Table S9 ([3]; MQC (nominal as E14)): 86.8%
CC(C)(O/N=C(\C(=O)N[C@@H]1C(=O)N2C(C(=O)[O-])=C(C[n+]3ccccc3)CS[C@H]12)c1csc(N)n1)C(=O)O [Ceftazidime, ceftazidime]	97.6	99.2	106.0	103.0	104.3	105.2	100.5	105.0	100.4	103.8	103.5	106.4	99.5	97.8	105.0	99.4	102.6	101.0	100.3	98.8	Mean accuracy (%), Table S12 ([1]; plasma, HQC (nominal as E15)): 100.3%; Mean accuracy (%), Table S12 ([1]; plasma, MQC (nominal as E14)): 105.0%; Mean accuracy (%), Table S14 ([1]; plasma, HQC (nominal as E15)): 107.7%; Mean accuracy (%), Table S14 ([1]; plasma, MQC (nominal as E14)): 103.0%; 32 Day Stability (%) [2]: 101.73%; Mean accuracy (%), Table S8 ([3]; HQC (nominal as E15)): 109.2%; Mean accuracy (%), Table S8 ([3]; LQC (nominal as E13)): 110.0%; Mean accuracy (%), Table S8 ([3]; MQC (nominal as E14)): 109.0%; Mean accuracy (%), Table S10 ([3]; HQC (nominal as E15)): 112.0%; Mean accuracy (%), Table S10 ([3]; LQC (nominal as E13)): 107.7%; Mean accuracy (%), Table S10 ([3]; MQC (nominal as E14)): 111.0%; Mean accuracy (%), Table S7 [3, 4]: 109.6%; Mean accuracy (%), Table S7 [3, 5]: 94.9%; Mean accuracy (%), Table S7 [3, 6]: 112.0%; Mean accuracy (%), Table S9 ([3]; HQC (nominal as E15)): 113.1%; Mean accuracy (%), Table S9 ([3]; LQC (nominal as E13)): 93.8%; Mean accuracy (%), Table S9 ([3]; MQC (nominal as E14)): 111.5%
